Non-standard residues stand in square brackets, D forms with d. Residues, ends and D or L forms follow the SMILES beside them. *: point of attachment. dCha = N[C@H](CC1CCCCC1)C(=O)O; dChg = N[C@@H](C(=O)O)C1CCCCC1; dPhg = N[C@@H](C(=O)O)c1ccccc1; pNA = O=[N+]([O-])c1ccc(N*)cc1; Chg = N[C@H](C(=O)O)C1CCCCC1; Pip = O=C(O)[C@@H]1CCCCN1; dPip = O=C(O)[C@H]1CCCCN1; Nle = CCCC[C@H](N)C(=O)O
How the values were obtained:
Format in all cases: biochemical
Humanthrombin = target: T1, Humanthrombin (Homo sapiens, UniProt P00734); experiment: Cleavage of chromogenic substrate by human NIH thrombin; details: 1 NIH-Einheit human thrombin, per min; Substratkonzentration 2 x 10^-4 molar
T1 construct: Humanplasmin und hu-manem NIH-Thrombin
Outline: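 Thrombin hydrolysis of chromogenic p-nitroanilide substrate read spectrophotometrically at 405 nm; fluorogenic naphthylamine, methylcoumarylamine or di(methoxycarbonyl)phenylamine substrates read continuously by fluorescence emission at 400-470 nm. Activity taken as product formed per unit time; 1 µmol product/min defined as 1 enzyme unit for a given substrate.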

[1] = target: T2, Submandibularis-Kallikrein (Homo sapiens, UniProt P06870); experiment: Cleavage of chromogenic substrate by submandibular (glandular) kallikrein in human sputum; details: 1 ml human sputum, per min; Substratkonzentration 2 x 10^-4 molar
T2 construct: Man mischt 0,5 ml Sputum mit 2 ml TRIS-Imidazol-Puffer; from tissue; host or cells: human sputum
T2 sequence (P06870 25-262): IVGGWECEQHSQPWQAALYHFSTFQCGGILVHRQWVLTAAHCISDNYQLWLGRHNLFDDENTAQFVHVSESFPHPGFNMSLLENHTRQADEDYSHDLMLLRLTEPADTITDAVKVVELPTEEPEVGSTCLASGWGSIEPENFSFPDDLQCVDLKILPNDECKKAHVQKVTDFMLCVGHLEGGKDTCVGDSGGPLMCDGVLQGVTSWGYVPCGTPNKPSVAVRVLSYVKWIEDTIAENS
Outline: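 Sputum mixed with TRIS-imidazole buffer (ionic strength 1.0), preincubated 5 min at 37°C and centrifuged; supernatant incubated with aqueous substrate solution (2 x 10^-3 M, stock). p-Nitroaniline release followed continuously at 405 nm for 5-10 min; activity expressed as mU per ml sputum from ΔOD/min.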

Urinkallikrein = target: T3, Urinkallikrein (Homo sapiens, UniProt P06870); experiment: Cleavage of chromogenic substrate by urinary kallikrein in human urine; details: 1 ml human urine (pooled morning urine of healthy persons), per min; Substratkonzentration 2 x 10^-4 molar
T3 construct: 1 ml Urin und 1 ml TRIS-Imidazol-Puffer mit pH 7,9; from tissue; host or cells: human urine
T3 sequence (P06870 25-262): as above

Humanplasmin = target: T4, Humanplasmin (Homo sapiens, UniProt P00747); experiment: Cleavage of chromogenic substrate by human plasmin; details: 1 CU-Einheit human plasmin, per min; Substratkonzentration 2 x 10^-4 molar
T4 construct: da bei der Aktivierung aus 1 Molekül Plasminogen 1 Molekül Plasmin entsteht
T4 sequence (P00747 581-810 limits assumed): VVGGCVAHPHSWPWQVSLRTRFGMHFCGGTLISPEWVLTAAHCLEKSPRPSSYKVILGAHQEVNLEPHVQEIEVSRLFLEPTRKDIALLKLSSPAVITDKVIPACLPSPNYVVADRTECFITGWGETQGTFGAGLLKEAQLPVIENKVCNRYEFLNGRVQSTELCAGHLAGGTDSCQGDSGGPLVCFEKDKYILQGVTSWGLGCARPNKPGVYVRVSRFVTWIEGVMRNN
T4 sequence (P00747 97-580 partner limits assumed): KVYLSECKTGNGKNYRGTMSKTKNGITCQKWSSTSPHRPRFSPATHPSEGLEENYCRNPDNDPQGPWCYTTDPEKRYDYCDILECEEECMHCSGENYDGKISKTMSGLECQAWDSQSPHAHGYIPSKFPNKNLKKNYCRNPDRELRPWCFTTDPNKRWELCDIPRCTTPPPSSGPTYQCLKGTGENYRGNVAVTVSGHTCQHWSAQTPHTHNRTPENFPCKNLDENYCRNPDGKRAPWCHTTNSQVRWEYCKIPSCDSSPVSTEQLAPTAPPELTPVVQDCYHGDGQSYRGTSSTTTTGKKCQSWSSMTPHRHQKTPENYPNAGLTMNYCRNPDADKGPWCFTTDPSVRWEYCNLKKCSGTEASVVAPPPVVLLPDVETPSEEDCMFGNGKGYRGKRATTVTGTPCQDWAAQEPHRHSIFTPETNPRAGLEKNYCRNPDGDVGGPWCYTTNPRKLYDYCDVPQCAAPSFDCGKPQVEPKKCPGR

SMILES	Menge des durch 1 NIH-Einheit Thrombin pro Min. freigesetzten Spaltproduktes R-NH2 in Nanomol (Humanthrombin) (Humanthrombin)	Menge des durch 1 ml Humansputum pro Min. freigesetzten Spaltproduktes R-NH2 in Nanomol (Submandibularis-Kallikrein) [1]	Menge des durch 1 ml Humanurin pro Min. freigesetzten Spaltproduktes R-NH2 in Nanomol (Urinkallikrein) (Urinkallikrein)	Menge des durch 1 CU-Einheit Humanplasmin pro Min. freigesetzten Spaltproduktes R-NH2 in Nanomol (Humanplasmin) (Humanplasmin)
N=C(N)NCCC[C@H](NC(=O)[C@@H](NC(=O)[C@H]1CCCCN1)C1CCCCC1)C(=O)Nc1ccc([N+](=O)[O-])cc1 [Beispiel 60, 2HBr.H-D-Pip-CHG-Arg-pNA] (H-[dPip]-[Chg]-Arg-pNA)	1,3 Nanomol	1,4 Nanomol	0 Nanomol	10 Nanomol
N=C(N)NCCC[C@H](NC(=O)[C@@H](NC(=O)[C@H](N)Cc1ccccc1)C1CCCCC1)C(=O)Nc1ccc([N+](=O)[O-])cc1 [Beispiel 61, 2HBr.H-D-Phe-CHG-Arg-pNA] (H-[dF]-[Chg]-Arg-pNA)	3,7 Nanomol	4,9 Nanomol	0,33 Nanomol	60 Nanomol
N=C(N)NCCC[C@H](NC(=O)[C@@H](NC(=O)[C@H](N)c1ccccc1)C1CCCCC1)C(=O)Nc1ccc([N+](=O)[O-])cc1 [Beispiel 62, 2HBr.H-D-Ph'Gly-CHG-Arg-pNA] (H-[dPhg]-[Chg]-Arg-pNA)	2,4 Nanomol	7,2 Nanomol	0,25 Nanomol	26 Nanomol
N=C(N)NCCC[C@H](NC(=O)[C@H](Cc1ccccc1)NC(=O)[C@H](N)c1ccccc1)C(=O)Nc1ccc([N+](=O)[O-])cc1 [Beispiel 63, 2HBr.H-D-Ph'Gly-Phe-Arg-pNA] (H-[dPhg]-Phe-Arg-pNA)	2,4 Nanomol	7,0 Nanomol	0,42 Nanomol	841 Nanomol
N=C(N)NCCC[C@H](NC(=O)[C@H](Cc1ccccc1)NC(=O)[C@H](N)CC1CCCCC1)C(=O)Nc1ccc([N+](=O)[O-])cc1 [Beispiel 64, 2HBr.H-D-CHA-Phe-Arg-pNA] (H-[dCha]-Phe-Arg-pNA)	25,8 Nanomol	9,7 Nanomol	0,5 Nanomol	1261 Nanomol
N=C(N)NCCC[C@H](NC(=O)[C@@H]1CCCCN1C(=O)[C@H](N)C1CCCCC1)C(=O)Nc1ccc([N+](=O)[O-])cc1 [Beispiel 65, 2HBr.H-D-CHG-Pip-Arg-pNA] (H-[dChg]-[Pip]-Arg-pNA)	142,5 Nanomol	14,2 Nanomol	1,92 Nanomol	259 Nanomol
N=C(N)NCCC[C@H](NC(=O)[C@@H]1CCCCN1C(=O)[C@H](N)CC1CCCCC1)C(=O)Nc1ccc([N+](=O)[O-])cc1 [Beispiel 66, 2HBr.H-D-CHA-Pip-Arg-pNA] (H-[dCha]-[Pip]-Arg-pNA)	114,2 Nanomol	9,8 Nanomol	0,53 Nanomol	228 Nanomol
CCCC[C@H](NC(=O)[C@H](N)C1CCCCC1)C(=O)N[C@@H](CCCNC(=N)N)C(=O)Nc1ccc([N+](=O)[O-])cc1 [Beispiel 67, 2HBr.H-D-CHG-Nleu-Arg-pNA] (H-[dChg]-[Nle]-Arg-pNA)	41,0 Nanomol	13,5 Nanomol	0,53 Nanomol	739 Nanomol
CCCC[C@H](NC(=O)[C@H](N)CC1CCCCC1)C(=O)N[C@@H](CCCNC(=N)N)C(=O)Nc1ccc([N+](=O)[O-])cc1 [Beispiel 68, 2HBr.H-D-CHA-Nleu-Arg-pNA] (H-[dCha]-[Nle]-Arg-pNA)	77,6 Nanomol	15,0 Nanomol	0,45 Nanomol	899 Nanomol
